Assay results published in the supplement of paper PMC6718421.

Tested on: Caenorhabditis elegans
Assay: animals per well after 6 days (50 L1 seeded); higher = more viable animals (less toxic)
Procedure: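 About 50 synchronized L1s per well were grown in liquid NGM with E. coli HB101 and twofold serial dilutions (0.12-120 uM) of crystal- or sphere-forming wactives for 6 days at 20 C; animals per well were counted, and overgrown wells (>50 animals) were scored as 100. Values are averages of replicate wells for wild type and sms-5(ok2498).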

CCCc1nc(-c2ccc(-c3ccc(F)cc3)cc2)no1 [wact-390]
animals per well
Details | genotype: sms-5(ok2498) | genotype: wild type N2
0.1171875 µM | > 100 | > 100
0.234375 µM | > 100 | > 100
0.46875 µM | > 100 | > 100
0.9375 µM | > 100 | > 100
1.875 µM | > 100 | 56.2
3.75 µM | > 100 | 4.83
7.5 µM | > 100 | 3.33
15 µM | > 100 | 2.83
30 µM | > 100 | 2.33
60 µM | > 100 | 0.333
120 µM | 92.7 | 0.667
